Source: the NIST ThermoML archive (doi:10.1016/j.fluid.2014.03.017)

Test: molar heat capacity at constant pressure
Conditions: Liquid, Flow calorimetry

CCOC(F)(F)C(F)(F)C(F)(F)C(F)(F)F [1-ethoxy-1,1,2,2,3,3,4,4,4-nonafluorobutane]
Conditions | molar heat capacity at constant pressure [J/K/mol]
245.62 K, 100 kPa | 307.66
245.63 K, 10000 kPa | 295.52
245.64 K, 5000 kPa | 299.74
245.64 K, 15000 kPa | 286.54
254.42 K, 100 kPa | 317.7
254.44 K, 5000 kPa | 310.04
254.44 K, 10000 kPa | 305.81
254.44 K, 15000 kPa | 297.89
264.28 K, 100 kPa | 328.53
264.29 K, 10000 kPa | 319.55
264.3 K, 5000 kPa | 321.66
264.3 K, 15000 kPa | 307.4
274.14 K, 100 kPa | 337.24
274.16 K, 10000 kPa | 328.26
274.17 K, 5000 kPa | 332.49
274.17 K, 15000 kPa | 318.23
283.97 K, 100 kPa | 343.58
283.98 K, 10000 kPa | 340.67
283.99 K, 5000 kPa | 338.83
283.99 K, 15000 kPa | 333.02
293.9 K, 100 kPa | 365.5
293.92 K, 10000 kPa | 356.52
293.93 K, 5000 kPa | 360.75
293.93 K, 15000 kPa | 344.64
303.85 K, 100 kPa | 373.69
303.85 K, 10000 kPa | 364.71
303.86 K, 5000 kPa | 368.93
303.86 K, 15000 kPa | 356.52
313.79 K, 100 kPa | 389.8
313.9 K, 10000 kPa | 377.91
313.91 K, 5000 kPa | 385.04
313.91 K, 15000 kPa | 369.2
323.6 K, 100 kPa | 393.76
323.62 K, 10000 kPa | 384.78
323.63 K, 5000 kPa | 389
323.63 K, 15000 kPa | 384.51
333.28 K, 100 kPa | 407.23
333.29 K, 5000 kPa | 402.47
333.29 K, 10000 kPa | 398.25
333.29 K, 15000 kPa | 399.04
343.51 K, 100 kPa | 419.9
343.52 K, 10000 kPa | 410.92
343.53 K, 5000 kPa | 414.88
343.53 K, 15000 kPa | 407.49
353.61 K, 100 kPa | 431.79
353.62 K, 10000 kPa | 422.81
353.63 K, 5000 kPa | 426.77
353.63 K, 15000 kPa | 420.43

CCOC(F)(C(F)(F)C(F)(F)C(F)(F)F)C(F)(C(F)(F)F)C(F)(F)F (centres undefined) [2-trifluoromethyl-3-ethoxydodecafluorohexane]
molar heat capacity at constant pressure [J/K/mol]
Conditions | 100 kPa | 5000 kPa | 10000 kPa | 15000 kPa
248.45 K | 309.34 | 304.79 | 300.64 | 300.23
254.4 K | 329.22 | 325.49 | 320.94 | 319.28
264.24 K | 362.35 | 358.21 | 354.07 | 351.17
273.51 K | 393.82 | 390.92 | 387.19 | 380.98
283.77 K | 428.61 | 428.19 | 426.12 | 414.53
294.36 K | 470.02 | 463.8 | 461.73 | 456.35
304.12 K | 490.31 | 485.34 | 484.1 | 476.23
313.92 K | 531.72 | 528.41 | 526.75 | 516.81
323.65 K | 565.26 | 559.05 | 547.87 | 543.31
333.47 K | 587.21 | 578.1 | 571.47 | 565.68
343.39 K | 629.04 | 620.75 | 612.88 | 606.67
353.38 K | 669.2 | 656.78 | 653.88 | 649.74

O [water]
molar heat capacity at constant pressure [J/K/mol]
Conditions | 100 kPa | 5000 kPa | 10000 kPa | 15000 kPa
294.2 K | – | – | 73.7 | –
294.24 K | 74.96 | 74.89 | – | –
294.27 K | – | – | – | 74.67
303.93 K | 75.43 | – | – | –
303.97 K | – | 75.34 | – | 76.01
303.98 K | – | – | 75.05 | –
313.68 K | 76.44 | – | 75.93 | –
313.69 K | – | 76.02 | – | 75.83
323.43 K | 76.28 | 75.84 | 75.47 | 74.96
333.33 K | 75.9 | 75.47 | 75.23 | 75.11
343.28 K | 76.31 | 75.95 | 75.29 | 75.07
353.25 K | – | 75.84 | 75.63 | 75.25
353.26 K | 76.04 | – | – | –
